This is an account of results in patent EP0638588A1, “Derivatives of 6,7-Dihydroxy-4-thiaheptonic acid and their use” (TAKEDA CHEMICAL INDUSTRIES, LTD., priority 1993, dated 1995).

Structures are written as SMILES. Structures can show the parent of a compound that is named as a salt. Square brackets hold non-standard residues; d marks the D form. Peptide text beside a SMILES is read from it. * marks the point of attachment. Propyl(2R-PamO,3-PamO) = CCCCCCCCCCCCCCCC(=O)OC[C@H](C*)OC(=O)CCCCCCCCCCCCCCC

Data set [1] deals with Non adherent bone marrow cells of BALB/c mice. Description: Enhancing development of AchE positive cells (fluorescence method). The conditions noted are these: 10 ng/ml; 37°C, 5 days; AchE activity in the group without compound is shown as 1. The data set is classed as cell-based. From the text:
Action of compound (I) on enhancing development of acetylcholine esterase (hereinafter abbreviated as AchE) positive cells are shown in Table 4.
The AchE activity was studied according to a fluorescence method (Ishibashi et al., Proceedings of the National Academy of Science U.S.A., Vol. 86, pp. 5953 to 5957, 1989).
Non adherent bone marrow cells of BALB/c mice (1 x 10⁶ cells/ml) were suspended in Iscove's modification of Dulbecco's medium (Gibco BRL Inc., U.S.A.) containing 1% Neutridoma-SP (Boheringer Mannhaim, Germany). Twenty-five µl of a test compound solution in an adequate concentration was inoculated in a 96-well plate. To each of these solutions in the well was added 100 µl of the non adherent bone marrow cells suspension. After incubation at 37°C for 5 days, 25 µl of 6% glutaraldehyde aqueous solution was added to the well. After standing at 4°C for 30 minutes the mixture was centrifuged (850 x g) at 5°C for 5 minutes and the supernatant was removed. […] To this was added 10 µl of 0.4 mM 7-diethylamino-3-(4'-maleimidylphenyl)-4-methylcoumarin aqueous solution and 100 µl of buffer (pH 5.0) containing 0.2% POPE, 1 mM EDTA and 50 mM sodium acetate and fluorescence emission was determined on a fluorometer (excitation wave length: 365 nm, fluorescence wave length: 450 nm).

In data set [2] the test system is bone marrow cells of BALB/c mice. The data set is described as follows: Enhancing proliferation of bone marrow cells of mice (MTT reduction method). The class given is cell-based. The following applies: concentration giving 1.3 or more times the proliferation of the group without test compound; 37°C, 3 days. The protocol:
Actions of compound (I) produced in the foregoing Examples on enhancing proliferation of bone marrow cells of mice are shown in Table 2.
To a RPMI 1640 culture medium [Bio-Wittaker Inc. (hereinafter abbreviated as BW), U.S.A.] containing 2 x 10⁶/ml of bone marrow cells of BALB/c mice, 2 mM of L-glutamine, 20 µg/ml of gentamicin (Flow Laboratories, Inc., Scotland), 10% fetal calf serum (BW, U.S.A.) was added a test compound in an adequate concentration, which was incubated at 37°C for 3 days in 5% carbon dioxide in air followed by determination of proliferation of the bone marrow cells by the MTT reduction method [Tada et al., Journal of Immunological Methods, Vol. 93, p.157, 1986].

The test system of another data set is leukocytes. Description: Enhancing the number of leukocytes in cyclophosphamide-treated mice. The class given is in vivo, CDF1/Crj mice. The following applies: percentage relative to mice without cyclophosphamide (100%). Here is the method: Six weeks old female CDF1/Crj mice (5 animals per group) were subjected to the experiment. Each animal was orally administered with cyclophosphamide dissolved in physiological saline solution at a dose of 150 mg/kg. From the next day, each animal was administered subcutaneously with the compound suspended in 5% glucose at the following dosage for five days once a day. On the next day after completion of the administration, about 100 µl of peripheral blood was collected from orbital vein using an EDTA-treated glass capillary. Then, the number of leukocytes was counted using an automatic cell analyzer (Sysmex K-2000, Toa Medical Electronics, Japan).

The next data set deals with mice. The data set is described as follows: Toxicity test, intravenous administration. The class given is in vivo. The following applies: intravenous administration at 125 mg/kg. Here is the method:
Intravenous administration of trisodium salt of compound 1 at 125 mg/kg caused no death in mice.

For the molecule `CCCCCCCCCCCCCCCC(=O)OC[C@H](CSC[C@H](NC(=O)CN)C(=O)N[C@@H](CCC(=O)O)C(=O)NCC(=O)N[C@H](CCC(=O)O)C(=O)O)OC(=O)CCCCCCCCCCCCCCC` [Compound 1, (2R,6R)-2-(H-Gly-amino)-6,7-bis(PamO)-4-THT-Glu-Gly-D-Glu-OH] (H-GC(Propyl(2R-PamO,3-PamO))EG[dE]-OH), the “Degree of AchE Positive Cell” value in data set [1] was found to be 1.92. In data set [2], the “Minimal Effective Concentration (MEC, ng/ml)” value was 6.25 ng/mL. Also, the Number of leukocytes in the data set with leukocytes (0.50 mg/kg/day subcutaneously for 5 days after oral cyclophosphamide 150 mg/kg) was 137%.

As to `CCCCCCCCCCCCCCCC(=O)OC[C@H](CSC[C@H](NC(=O)[C@@H](N)Cc1ccc(O)cc1)C(=O)N[C@@H](CCC(=O)O)C(=O)NCC(=O)N[C@H](CCC(=O)O)C(=O)O)OC(=O)CCCCCCCCCCCCCCC` [Compound 5, (2R,6R)-2-(H-Tyr-amino)-6,7-bis(PamO)-4-THT-Glu-Gly-D-Glu-OH] (H-YC(Propyl(2R-PamO,3-PamO))EG[dE]-OH), in data set [2], the “Minimal Effective Concentration (MEC, ng/ml)” value was 6.25 ng/mL.

Take `CCCCCCCCCCCCCCCC(=O)OC[C@H](CSC[C@H](NC(=O)CN)C(=O)N[C@@H](CCC(=O)O)C(=O)NCC(=O)N[C@H](CCC(=O)O)C(=O)O)OC(=O)CCCCCCCCCCCCCCC` [trisodium salt of compound 1] (H-GC(Propyl(2R-PamO,3-PamO))EG[dE]-OH): in the data set with mice, the death entry was “no death”.

For `CCCCCCCCCCCCCCCC(=O)OC[C@H](CSC[C@H](NC(=O)CNC(=O)[C@@H](N)CCC(=O)O)C(=O)N[C@@H](CCC(=O)O)C(=O)NCC(=O)N[C@H](CCC(=O)O)C(=O)O)OC(=O)CCCCCCCCCCCCCCC` [Compound 4, (2R,6R)-2-(H-Glu-Gly-amino)-6,7-bis(PamO)-4-THT-Glu-Gly-D-Glu-OH] (H-EGC(Propyl(2R-PamO,3-PamO))EG[dE]-OH), the Number of leukocytes with leukocytes (0.13 mg/kg/day subcutaneously for 5 days after oral cyclophosphamide 150 mg/kg) came to 108%.
